From paper PMC9126943, “ADAMTS4-specific MR probe to assess aortic aneurysms in vivo using synthetic peptide libraries” (Nature Communications, 2022)
“Also recorded” adds a separate entry of the source. Where a SMILES comes first, the peptide text is derived from it. Bridges are numbered along the chain shown (N, C = ends). The star is where a group is joined. Cy5(nonsulfonated) = CN1C(=CC=CC=CC2=[N+](CCCCCC(=O)*)c3ccccc3C2(C)C)C(C)(C)c2ccccc21

Target: T1, ADAMTS1 (Homo sapiens, UniProt Q9UHI8)
T1 construct: His; purchased BioTeZ Berlin-Buch GmbH 30 400 402
T1 sequence (Q9UHI8 253-967): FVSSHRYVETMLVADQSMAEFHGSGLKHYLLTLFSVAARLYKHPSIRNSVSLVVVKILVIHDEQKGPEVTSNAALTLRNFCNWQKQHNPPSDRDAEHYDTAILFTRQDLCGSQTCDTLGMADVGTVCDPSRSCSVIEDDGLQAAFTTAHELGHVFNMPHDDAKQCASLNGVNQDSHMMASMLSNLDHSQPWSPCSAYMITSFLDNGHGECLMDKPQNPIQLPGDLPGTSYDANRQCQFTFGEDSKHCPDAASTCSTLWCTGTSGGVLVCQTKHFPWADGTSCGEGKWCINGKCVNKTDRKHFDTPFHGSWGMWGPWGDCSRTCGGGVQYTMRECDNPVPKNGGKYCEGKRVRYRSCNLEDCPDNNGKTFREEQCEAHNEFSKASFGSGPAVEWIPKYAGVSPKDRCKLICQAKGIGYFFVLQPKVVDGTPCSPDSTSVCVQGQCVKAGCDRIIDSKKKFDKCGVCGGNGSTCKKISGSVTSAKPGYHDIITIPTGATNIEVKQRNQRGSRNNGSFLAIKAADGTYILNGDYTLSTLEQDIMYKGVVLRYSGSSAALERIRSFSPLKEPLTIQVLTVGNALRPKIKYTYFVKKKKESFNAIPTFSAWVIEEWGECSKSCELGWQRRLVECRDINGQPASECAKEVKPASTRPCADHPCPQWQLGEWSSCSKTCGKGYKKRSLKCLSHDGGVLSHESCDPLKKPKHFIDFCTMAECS
Assay: MST instrument, ligand-dependent fluorescence change, Cy5-labeled peptide vs ADAMTS1
Format: binding
Settings: Cy5-labeled peptide 3 nM, ADAMTS1 starting concentration 4.88 µM, n = 3
Method: Microscale thermophoresis (MST) was performed on a Monolith Pico (NanoTemper, Munich, Germany). The Cy5-labeled peptides were diluted into the MST buffer (150 mM NaCl, 50 mM TRIS-HCl, 5 mM CaCl2, and Tween-20) to reach a dilution of 6 nM. ADAMTS4, ADAMTS5, and ADAMTS1 were directly used with the supplied concentration. For ADAMTS4, the starting concentration was 4.96 µM, while for ADAMTS1 it was 4.88 µM and for ADAMTS5 it was 2.46 µM. Since we saw a loss of binding after centrifugation, the use of protein concentrators were inappropriate. 20 µl of the protein solutions were transferred into a PCR tube. 10 µl of this first vial was transferred into a second vial and mixed by pipetting with 10 µl of the MST buffer. […] The capillaries were transferred into the Monolith tray and measured with 10% excitation power on the pico-red excitation on high MST power at 25 °C. […] We detected a ligand-dependent fluorescence change for some of the systems. We checked for ADAMTS4 and the ADAMTS4-specific-Cy5-labeled probe via a saturation test for specifying the ligand-dependent fluorescence change. […] The samples were heated at 95 °C for 5 min and measured in the MST. The fluorescence difference between the concentrations was afterward at the same level. Each measurement was repeated three times independently and the binding constant was calculated by merging all three measurements. […]

C[N+]1=C(C=CC=CC=C2N(CCCCCC(=O)NCCCC[C@H](NC(=O)CNC(=O)CNC(=O)[C@H](CO)NC(=O)CNC(=O)CNC(=O)[C@H](CO)NC(=O)[C@@H]3CSSC[C@H](N)C(=O)N[C@@H](CO)C(=O)N[C@@H](CCCNC(=N)N)C(=O)N[C@@H](CCCNC(=N)N)C(=O)NCC(=O)N3)C(=O)NCC(N)=O)c3ccccc3C2(C)C)C(C)(C)c2ccccc21 [Cy5-labeled probe] (H-CSRRGCSGGSGGK(Cy5(nonsulfonated))G-NH2; disulfide 1-6; N-terminus and C-terminus assumed)
binding to ADAMTS1, in words: determination of the binding constant is not possible; also recorded: plateau was not reached; also recorded: a ligand dependent fluorescence change occurs
